Assay results: US11518750B2, “3-methylideneoxan-4-one compounds and substituted derivatives thereof as inhibitors of telomerase” (NORTHWESTERN UNIVERSITY, priority 2019, dated 2022)

Legend:
[1] = biological target: T1, telomerase (MCF-7 cell lysates) (Homo sapiens, UniProt O14746); assay: TRAP assay in cell lysates (PCR-based telomerase activity assay); type: biochemical; conditions: TRAP assay in MCF7 cell lysate in vitro; read-out: IC50
T1 construct: endogenous in cells; host or cells: MCF-7
From the text: In developing a preliminary structural activity relationship (SAR) for the chrologs, we divided the structure of the pyran into four main components: (1)C-2 substituents (carboxylic acid of chrolactomycin); (2) C-6 substituents (chrolactomycin macrolide loop); (3) C-3 substituents (fused γ-lactone of chrolactomycin) and (4) inclusion of the exocyclic methylene group. We carried out systematic modifications of each structural unit and evaluated the effects on telomerase activity as measured by a PCR-based telomerase activity assay (TRAP assay).^16
Telomeric Repeat Amplification Protocol Assay. The telomeric repeat amplification protocol (TRAP) assay was performed using the TRAPeze RT Telomerase Detection Kit (EMD Millipore) and iTaq DNA polymerase (Bio-Rad) according to the manufacturer's protocol.
Cell Lysate TRAP Analysis. MCF-7, HeLa, ACHN, MDA-MB231 and A549 cells were cultured in DMEM media supplemented with 10% Fetal Bovine Serum (FBS), 1% pen/strep and with 5% CO2 and 37° C. Cells were plated in 2×T75 flasks and cultured for 3 days. Flasks were rinsed twice with PBS and treated with 0.05% trypsin-EDTA (Thermo Fisher) to detach cells. […] Cell extracts were transferred to microcentrifuge tubes, 200 μl/tube, and centrifuged at 12,000×g for 20 min at 4° C. to remove cell debris. Stock solutions of compounds were made in DMSO with a concentration of 100 mM and a […] dilution was performed in DMSO in a 96-well plate to produce compound solutions of 100, 10, 1, 0.1, 0.01, and 0.001 mM (1000× of the final concentration). The 1000× stock solutions of the compound samples were transferred to a 96-well plate using the Echo 550 (Labcyte) and then diluted with the cell extracts to yield final compound concentrations of 100, 10, 1, 0.1, 0.01, and 0.001 μM. The plate was covered and shaken at room temperature for 30 min. For TRAPeze reactions, a “master mix” was prepared according to the TRAPeze protocol, containing 5 μl of the TRAPeze reaction mix; 0.4 μl Taq polymerase; 17.6 μl PCR grade, nuclease-free water. The master mix and treated cell extracts were transferred using the Mosquito Crystal Liquid Handling System (TTP Labtech) into separate wells in a white, 384-well RT-PCR plate. Each well contained 1.2 μl of the master mix and 1.2 μl of the treated cell extract to give a final volume of 2.4 μl, with two duplicates for each sample. The RT-PCR plate was then sealed and centrifuged for 5 min. A sample containing only CHAPS Lysis Buffer was included as negative control. The TSR8 standards were included to generate a standard curve. Samples were amplified in a CFW384 RT-PCR (BioRad) detection system with PCR parameters of 30 min at 30° C. for 1 cycle, 2 min at 95° C. for 1 cycle, and then 45 cycles of 15 s at 94° C., 60 s at 59° C., and 10 s at 45° C. Real-time fluorescent data was obtained during the 10 s at 45° C. step. The number of cycles at which the fluorescence level reached a threshold (Ct) was averaged between the duplicates for each sample. Using a calibration curve obtained from the TSR8 standards, a linear equation was obtained to convert the Ct values into arbitrary telomerase activity units, which were plotted as a function of compound concentration to construct dose-response curves and calculate IC50.

Saos-2 = assay: Cell viability, telomerase-negative cells; type: cell-based; conditions: Saos-2, up to 100 μM
Lipophilicity = type: physicochemical; conditions: in words
[2] = biological target: T2, Human telomerase purified from telomerase-overexpressing HEK293T cells (Homo sapiens, UniProt O14746); assay: Direct (non-PCR) primer extension telomerase activity assay, purified telomerase; type: biochemical; conditions: purified telomerase
T2 construct: made in house; host or cells: HEK293T (telomerase-overexpressing)
T2 sequence (O14746 whole entry): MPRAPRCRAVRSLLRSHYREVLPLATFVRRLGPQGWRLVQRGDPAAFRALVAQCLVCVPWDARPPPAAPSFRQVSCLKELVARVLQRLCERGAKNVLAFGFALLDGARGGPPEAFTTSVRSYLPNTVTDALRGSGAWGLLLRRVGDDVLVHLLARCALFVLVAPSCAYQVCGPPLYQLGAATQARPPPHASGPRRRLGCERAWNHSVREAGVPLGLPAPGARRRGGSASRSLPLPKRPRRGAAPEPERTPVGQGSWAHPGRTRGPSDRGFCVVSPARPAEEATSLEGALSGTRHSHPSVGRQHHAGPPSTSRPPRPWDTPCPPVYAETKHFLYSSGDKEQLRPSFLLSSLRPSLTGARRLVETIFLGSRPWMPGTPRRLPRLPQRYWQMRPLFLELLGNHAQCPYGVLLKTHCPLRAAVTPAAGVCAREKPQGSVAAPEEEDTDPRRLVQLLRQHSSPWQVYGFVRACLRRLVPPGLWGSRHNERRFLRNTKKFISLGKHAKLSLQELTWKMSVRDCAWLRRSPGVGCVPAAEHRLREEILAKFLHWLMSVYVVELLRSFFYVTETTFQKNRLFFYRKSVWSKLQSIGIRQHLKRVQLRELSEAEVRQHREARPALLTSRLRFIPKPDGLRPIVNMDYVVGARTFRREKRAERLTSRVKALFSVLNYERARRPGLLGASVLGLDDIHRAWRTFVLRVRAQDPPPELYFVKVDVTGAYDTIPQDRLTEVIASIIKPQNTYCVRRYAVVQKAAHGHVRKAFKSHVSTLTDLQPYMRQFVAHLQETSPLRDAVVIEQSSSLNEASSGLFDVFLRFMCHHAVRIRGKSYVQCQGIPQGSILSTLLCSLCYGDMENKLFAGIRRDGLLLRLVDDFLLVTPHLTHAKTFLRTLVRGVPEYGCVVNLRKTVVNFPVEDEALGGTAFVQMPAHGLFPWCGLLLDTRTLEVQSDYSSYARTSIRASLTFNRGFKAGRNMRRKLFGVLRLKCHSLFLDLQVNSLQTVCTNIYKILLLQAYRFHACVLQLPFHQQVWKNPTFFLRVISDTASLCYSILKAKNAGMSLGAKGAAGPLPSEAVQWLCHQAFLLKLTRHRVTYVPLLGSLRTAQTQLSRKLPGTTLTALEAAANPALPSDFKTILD
T2 sequence (O60832 whole entry partner): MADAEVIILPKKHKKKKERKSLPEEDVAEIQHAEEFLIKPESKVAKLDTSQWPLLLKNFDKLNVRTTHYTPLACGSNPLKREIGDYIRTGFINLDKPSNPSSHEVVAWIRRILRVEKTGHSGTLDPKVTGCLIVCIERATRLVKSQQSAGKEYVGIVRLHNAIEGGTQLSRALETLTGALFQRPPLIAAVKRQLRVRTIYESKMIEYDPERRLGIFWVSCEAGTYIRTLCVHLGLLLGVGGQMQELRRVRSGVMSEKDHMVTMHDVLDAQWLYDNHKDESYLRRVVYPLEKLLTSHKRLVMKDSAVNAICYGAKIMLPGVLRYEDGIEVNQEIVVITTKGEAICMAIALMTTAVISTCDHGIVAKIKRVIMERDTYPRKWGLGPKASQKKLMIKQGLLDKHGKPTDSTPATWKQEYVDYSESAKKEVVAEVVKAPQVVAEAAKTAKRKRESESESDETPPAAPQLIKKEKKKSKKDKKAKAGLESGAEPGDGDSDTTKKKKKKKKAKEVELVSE
T2 sequence (Q9NPE3 whole entry partner): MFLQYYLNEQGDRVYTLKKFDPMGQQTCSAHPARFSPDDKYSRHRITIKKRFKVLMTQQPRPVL
T2 sequence (Q9NX24 whole entry partner): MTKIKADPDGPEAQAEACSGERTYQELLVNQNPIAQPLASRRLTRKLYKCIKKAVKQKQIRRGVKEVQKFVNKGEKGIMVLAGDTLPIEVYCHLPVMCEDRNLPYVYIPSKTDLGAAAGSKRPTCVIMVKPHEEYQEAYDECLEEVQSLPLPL
T2 sequence (Q9NY12 whole entry partner): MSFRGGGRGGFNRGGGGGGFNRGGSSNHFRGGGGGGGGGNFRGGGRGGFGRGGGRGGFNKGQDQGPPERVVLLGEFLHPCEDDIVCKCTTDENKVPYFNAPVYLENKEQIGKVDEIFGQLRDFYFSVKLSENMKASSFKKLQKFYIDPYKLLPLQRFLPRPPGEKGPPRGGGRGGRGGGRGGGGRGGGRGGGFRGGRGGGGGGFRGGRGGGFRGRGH
Method: Primer-Extension Telomerase Activity Assays. […] ID NO: 1) (2 μM)].

MCF-7 cells = assay: Compound washout cell viability; type: cell-based, human; conditions: washed, fresh media, 24 h
Method: Compound Washout Cell Viability Measurements. MCF-7 cells were plated in 96 well plates and allowed to attach for 24 h. Media was removed, and fresh media containing various concentrations of compound was added, and the plate was incubated for 24 h. Media was removed, cells were washed 2 times with PBS, and fresh media without compound was added. Cells were incubated at 37° C. for an additional “X” h and analyzed as above. Note: “fresh” media constitutes media supplemented with 10% Fetal Bovine Serum (FBS) and 1% pen/strep that has not been previously used for cell culture (e.g., not conditioned media).

N-acetyl cysteine (NAC) = assay: physchem; type: physicochemical; conditions: pH 7.4
Method: N-Acetyl Cysteine, N-Acetyl Lysine and N-Acetyl Serine Kinetic Studies. Assay was conducted as described with minor modifications.^81-84 Briefly, a 1 mM stock solution of NU-1 with internal standard (phenacetin) in DMSO was added to a 50 mM solution of either N-acetyl cysteine, N-acetyl lysine or N-acetyl serine in 67 mM phosphate buffer (pH 7.4), as well as added to a solution of 67 mM phosphate buffer (pH 7.4) control. Samples were taken every 2 min for 2 h and quenched immediately with MeOH and centrifuged upon sampling. Samples were placed on a Waters Acquity UPLC-MS system and measured for the ratio of NU-1 to internal standard intensity to calculate the amount of NU-1 present at each time point relative to the amount of NU-1 at the first injection of the compound in buffer. Assay was conducted in triplicate.

tcTERT = assay: Protease digestion and mass spectrometry of treated tcTERT; type: binding, Tribolium castaneum; conditions: proteolysis and tandem mass spectrometry
Method: Protease Digestion and Mass Spectrometry Analysis. tcTERT (50 μg, ˜600 pmol) was treated with chrolactomycin, NU-1, helenalin, costunolide or DMSO for 1 hr at 37° C. The reaction was diluted with ammonium bicarbonate buffer (pH 8.0), then reduced for 30 min at 56° C. with 10 mM DTT. After cooling to 23° C., the protein was alkylated with 25 mM iodoacetamide for 30 min at 23° C. in the dark, followed by trypsin digestion (2.5 μg, Promega) overnight at 37° C. Digested peptides (˜2 pmol) were injected onto a self-packed precolumn (4 cm POROS10R2) and eluted into the mass spectrometer (LTQ Orbitrap Velos, Thermo Fisher). Peptides were subjected to MS^2 by CAD (electron multiplier detection, relative collision energy 35%, q=0.25).

Plasma stability assay = type: in vitro ADME; conditions: in words

T1 sequence (O14746 whole entry): as the sequence (O14746 whole entry) above
T1 sequence (O60832 whole entry partner): as the sequence (O60832 whole entry partner) above
T1 sequence (Q9NPE3 whole entry partner): as the sequence (Q9NPE3 whole entry partner) above
T1 sequence (Q9NX24 whole entry partner): as the sequence (Q9NX24 whole entry partner) above
T1 sequence (Q9NY12 whole entry partner): as the sequence (Q9NY12 whole entry partner) above
T1 sequence (Q9BUR4 whole entry partner): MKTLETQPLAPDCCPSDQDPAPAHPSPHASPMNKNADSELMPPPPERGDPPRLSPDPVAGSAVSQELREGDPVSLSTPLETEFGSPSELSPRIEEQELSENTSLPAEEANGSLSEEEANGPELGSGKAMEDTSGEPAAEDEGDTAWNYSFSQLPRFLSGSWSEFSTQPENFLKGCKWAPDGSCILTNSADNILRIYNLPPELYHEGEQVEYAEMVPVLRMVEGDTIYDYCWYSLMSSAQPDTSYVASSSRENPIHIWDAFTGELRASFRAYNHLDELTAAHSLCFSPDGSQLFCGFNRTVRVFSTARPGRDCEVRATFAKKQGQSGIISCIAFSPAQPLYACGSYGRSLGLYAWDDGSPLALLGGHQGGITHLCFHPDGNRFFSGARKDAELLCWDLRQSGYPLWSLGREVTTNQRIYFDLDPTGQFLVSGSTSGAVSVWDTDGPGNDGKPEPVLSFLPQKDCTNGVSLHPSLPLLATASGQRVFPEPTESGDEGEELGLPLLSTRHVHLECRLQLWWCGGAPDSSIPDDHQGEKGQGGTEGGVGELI

- IC50 [1]: 90 nM
- lipophilicity (Lipophilicity): favorable
- time to complete inhibition ([2]; 100 μM): ~6 h
- inhibition of telomere repeat synthesis ([2]; in words): low-micromolar range
- half-life at 1 μM (N-acetyl cysteine (NAC)): 42 min
- plasma stability (Plasma stability assay): satisfactory performance
Structure (SMILES): C=C1C(=O)[C@](C)(C(=O)OC)[C@H](CCc2cn(Cc3ccc(F)cc3F)nn2)O[C@@H]1C [NU-1, methyl (2S,3R,6R)-2-(2-(1-(2,4-difluorobenzyl)-1H-1,2,3-triazol-4-yl)ethyl)-3,6-dimethyl-5 methylene-4-oxotetrahydro-2H-pyran-3-carboxylate]
- effect on viability (Saos-2): did not affect viability
- viability after washout (MCF-7 cells): did not restore
- adduct formation with tcTERT peptides (tcTERT): single modified peptide
